Measured values from publication PMC8296573, “Synthesis and Biological Evaluation of Fingolimod Derivatives as Antibacterial Agents” (ACS Omega, 2021).
Like-named read-outs stand apart in the source and are kept apart here.

Experiments:
S. aureus ATCC 25923 [1] = assay: Antibacterial activity, pre-exposure (planktonic cells and biofilm formation); assay type: cell-based, Staphylococcus aureus; settings: for Average inhibition %, biofilms biomass / Average inhibition %, biofilms viability / Average inhibition %, planktonic cells turbidity / Average inhibition %, planktonic cells viability: ± SD
Procedure, shortened: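 Compounds in DMSO were plated before bacteria were added (pre-exposure) and incubated 18 h aerobically at 37 °C with shaking. Planktonic cells were read by OD and resazurin fluorescence (20 μM final; ex 560/em 590 nm). Biofilms were read by resazurin, then crystal violet (A595) for total biomass.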

P. aeruginosa ATCC 9027 = assay: Antibacterial activity, pre-exposure; assay type: cell-based, Pseudomonas aeruginosa; settings: for Average inhibition %, biofilms biomass / Average inhibition %, biofilms viability / Average inhibition %, planktonic cells turbidity / Average inhibition %, planktonic cells viability: P. aeruginosa ATCC 9027, pre-exposure, ± SD
Method: (§1) The antimicrobial activity was assessed in a similar way for the initial screening and the dose–response evaluation against different bacterial strains. With the exception of the post-exposure experiment, the compounds were added to the wells along with the bacteria to test the ability of compounds to prevent bacterial growth and biofilm formation (pre-exposure). The compounds were diluted in DMSO and plated directly in 96-well plates before adding the bacterial culture, and plates were incubated for 18 h under aerobic conditions at 37 °C with shaking (220 rpm). The antibacterial activity of the compounds was assessed on planktonic cells and biofilms separately using two different measurements for each: optical density (turbidity) and resazurin reduction (viability) on planktonic cells and resazurin followed by a crystal violet staining assay (total biomass) on biofilms, as described in the following sections.
(§2) The resazurin staining was performed according to the protocol previously optimized with a few modifications.[46] Briefly, the planktonic solution was first transferred into a new 96-well plate and the OD of the planktonic solution was measured using a Varioskan LUX Multimode microplate reader (Thermo Scientific, Vantaa, Finland). Then, 10 μL of a 400 μM resazurin (R7017, Sigma-Aldrich, St. Louis, MO) diluted in phosphate-buffered saline (PBS) (Thermo Fisher Scientific, MA) was added to the wells (for a final resazurin concentration of 20 μM). The plate was incubated in the dark with shaking (220 rpm) for about 3–10 min at room temperature with S. aureus and A. baumannii (until the bacteria controls turned pink) or for 20 min at 37 °C with P. aeruginosa. Fluorescence was measured at λex = 560 nm and λem = 590 nm using the top optics of the Varioskan LUX Multimode microplate reader. The planktonic plate was then discarded. The original challenge plate containing the biofilms was washed once with PBS, and 200 μL of a 20 μM resazurin solution was added to the wells. The plate was incubated in the dark at 37 °C with shaking (220 rpm) for 30 min with S. aureus, 60 min with A. baumannii, and 90 min with P. aeruginosa. Fluorescence was measured as described for the planktonic solution. The biofilms were next treated with crystal violet staining.
(§3) After removing the resazurin solution from the plate, biofilms were fixed with ethanol 100% for 15 min at room temperature. Ethanol was then removed, and the biofilms were left to air-dry completely at RT. Crystal violet, diluted to 1:100 in deionized water from the 2.3% commercial solution (HT90132, Sigma-Aldrich, St. Louis, MO), was added to the wells and, after a 5 min incubation with the dye, the biofilms were washed twice with deionized water and left to air-dry for about 10 min. The dye was solubilized in ethanol 100% for 1 h, and absorbance was measured at 595 nm using a Multiskan Sky microplate spectrophotometer (Thermo Scientific, Vantaa, Finland).

S. aureus ATCC 25923 [2] = assay: Antibacterial activity, post-exposure on preformed 18-h-old biofilms; assay type: cell-based, Staphylococcus aureus; settings: ± SD
Method: For the post-exposure experiment, bacteria were grown with no compounds in the same conditions for 18 h, after which the media was changed, and compounds were added on the preformed biofilms. The plates were then incubated in the same conditions for an additional 24 h before proceeding to the staining assays.
as §2, §3

A. baumannii NCTC 13423 = assay: Antibacterial activity, pre-exposure; assay type: cell-based, Acinetobacter baumannii; settings: for Average inhibition %, biofilms biomass / Average inhibition %, biofilms viability / Average inhibition %, planktonic cells turbidity / Average inhibition %, planktonic cells viability: A. baumannii NCTC 13423, pre-exposure, ± SD
Method: as §1, §2, §3

2-Amino-2-(4-decylbenzyl)propane-1,3-diol [Compound 45]
MIC S. aureus ATCC 25923 (S. aureus ATCC 25923 [1]; lowest concentration with no visible growth (>90% inhibition of turbidity and viability of planktonic cells), 18 h): 5 to 10 µM
MIC (S. aureus ATCC 25923 [1]; lowest concentration with no visible growth (>90% inhibition of turbidity and viability of planktonic cells), 18 h, read-out: MIC S. aureus ATCC 25923): 10 µM
Average inhibition %, biofilms biomass (S. aureus ATCC 25923 [1]; pre-exposure, 5 µM): 45.3 ± 46.5%
Average inhibition %, biofilms viability (S. aureus ATCC 25923 [1]; pre-exposure, 5 µM): 45.4 ± 46.1%
Average inhibition %, planktonic cells turbidity (S. aureus ATCC 25923 [1]; pre-exposure, 5 µM): 45.7 ± 46.9%
Average inhibition %, planktonic cells viability (S. aureus ATCC 25923 [1]; pre-exposure, 5 µM): 41.5 ± 50.3%
Average inhibition %, biofilms biomass (S. aureus ATCC 25923 [1]; pre-exposure, 10 µM): 92.5 ± 4.8%
Average inhibition %, biofilms viability (S. aureus ATCC 25923 [1]; pre-exposure, 10 µM): 98.9 ± 0.5%
Average inhibition %, planktonic cells turbidity (S. aureus ATCC 25923 [1]; pre-exposure, 10 µM): 99 ± 0.7%
Average inhibition %, planktonic cells viability (S. aureus ATCC 25923 [1]; pre-exposure, 10 µM): 99.8 ± 0.1%
Average inhibition %, biofilms biomass (S. aureus ATCC 25923 [1]; pre-exposure, 15 µM): 91.8 ± 4.7%
Average inhibition %, biofilms viability (S. aureus ATCC 25923 [1]; pre-exposure, 15 µM): 99.7 ± 0.1%
Average inhibition %, planktonic cells turbidity (S. aureus ATCC 25923 [1]; pre-exposure, 15 µM): 98.9 ± 0.7%
Average inhibition %, planktonic cells viability (S. aureus ATCC 25923 [1]; pre-exposure, 15 µM): 99.7 ± 0.1%
Average inhibition %, biofilms biomass (S. aureus ATCC 25923 [1]; pre-exposure, 25 µM): 91.8 ± 5.6%
Average inhibition %, biofilms viability (S. aureus ATCC 25923 [1]; pre-exposure, 25 µM): 99.7 ± 0%
Average inhibition %, planktonic cells turbidity (S. aureus ATCC 25923 [1]; pre-exposure, 25 µM): 98.6 ± 0.6%
Average inhibition %, planktonic cells viability (S. aureus ATCC 25923 [1]; pre-exposure, 25 µM): 99.8 ± 0.2%
MIC (S. aureus ATCC 25923 [1]; pre-exposure, lowest value among replicates, read-out: MIC S. aureus ATCC 25923, for some replicates): 5 µM
MIC (S. aureus) (S. aureus ATCC 25923 [1]; supplementary molecular formula strings sheet): 5 to 10 µM
Average inhibition %, biofilms biomass (P. aeruginosa ATCC 9027; 50 µM): 5 ± 3.4%
Average inhibition %, biofilms viability (P. aeruginosa ATCC 9027; 50 µM): 8.1 ± 10.9%
Average inhibition %, planktonic cells turbidity (P. aeruginosa ATCC 9027; 50 µM): 31.3 ± 5.3%
Average inhibition %, planktonic cells viability (P. aeruginosa ATCC 9027; 50 µM): 24.4 ± 2.7%
Average inhibition %, biofilms biomass (P. aeruginosa ATCC 9027; 100 µM): 2.5 ± 4.4%
Average inhibition %, biofilms viability (P. aeruginosa ATCC 9027; 100 µM): 4 ± 6.6%
Average inhibition %, planktonic cells turbidity (P. aeruginosa ATCC 9027; 100 µM): 41.8 ± 6%
Average inhibition %, planktonic cells viability (P. aeruginosa ATCC 9027; 100 µM): 30 ± 7.6%
Average inhibition %, biofilms biomass (P. aeruginosa ATCC 9027; 150 µM): 1.6 ± 2.8%
Average inhibition %, biofilms viability (P. aeruginosa ATCC 9027; 150 µM): 1.9 ± 2.9%
Average inhibition %, planktonic cells turbidity (P. aeruginosa ATCC 9027; 150 µM): 39.3 ± 3.3%
Average inhibition %, planktonic cells viability (P. aeruginosa ATCC 9027; 150 µM): 36.5 ± 11.5%
Average inhibition %, biofilms biomass (P. aeruginosa ATCC 9027; 200 µM): 0 ± 0%
Average inhibition %, biofilms viability (P. aeruginosa ATCC 9027; 200 µM): 0 ± 0%
Average inhibition %, planktonic cells turbidity (P. aeruginosa ATCC 9027; 200 µM): 40.7 ± 6.2%
Average inhibition %, planktonic cells viability (P. aeruginosa ATCC 9027; 200 µM): 22.9 ± 11.2%
MIC P. aeruginosa ATCC 9027 (P. aeruginosa ATCC 9027; pre-exposure, Inactive = no activity up to 200 μM, > = some inhibition but no MIC reached): Inactive
Average inhibition %, biofilms biomass (S. aureus ATCC 25923 [2]; 25 µM): 36.9 ± 3%
Average inhibition %, biofilms viability (S. aureus ATCC 25923 [2]; 25 µM): 15.5 ± 10.9%
Average inhibition %, planktonic cells turbidity (S. aureus ATCC 25923 [2]; 25 µM): 9.2 ± 8.6%
Average inhibition %, planktonic cells viability (S. aureus ATCC 25923 [2]; 25 µM): 1 ± 1.7%
Average inhibition %, biofilms biomass (S. aureus ATCC 25923 [2]; 50 µM): 39.5 ± 9%
Average inhibition %, biofilms viability (S. aureus ATCC 25923 [2]; 50 µM): 25.2 ± 5.5%
Average inhibition %, planktonic cells turbidity (S. aureus ATCC 25923 [2]; 50 µM): 28.1 ± 16.3%
Average inhibition %, planktonic cells viability (S. aureus ATCC 25923 [2]; 50 µM): 22.5 ± 18.5%
Average inhibition %, biofilms biomass (S. aureus ATCC 25923 [2]; 100 µM): 51.3 ± 5.8%
Average inhibition %, biofilms viability (S. aureus ATCC 25923 [2]; 100 µM): 23.1 ± 10.2%
Average inhibition %, planktonic cells turbidity (S. aureus ATCC 25923 [2]; 100 µM): 45.7 ± 12.8%
Average inhibition %, planktonic cells viability (S. aureus ATCC 25923 [2]; 100 µM): 59.7 ± 16.4%
Average inhibition %, biofilms biomass (S. aureus ATCC 25923 [2]; 200 µM): 47.7 ± 12.7%
Average inhibition %, biofilms viability (S. aureus ATCC 25923 [2]; 200 µM): 17.1 ± 16.5%
Average inhibition %, planktonic cells turbidity (S. aureus ATCC 25923 [2]; 200 µM): 53.9 ± 18.7%
Average inhibition %, planktonic cells viability (S. aureus ATCC 25923 [2]; 200 µM): 70.7 ± 12.5%
Average inhibition %, biofilms biomass (A. baumannii NCTC 13423; 10 µM): 0 ± 0%
Average inhibition %, biofilms viability (A. baumannii NCTC 13423; 10 µM): 2.1 ± 3.6%
Average inhibition %, planktonic cells turbidity (A. baumannii NCTC 13423; 10 µM): 0 ± 0%
Average inhibition %, planktonic cells viability (A. baumannii NCTC 13423; 10 µM): 4.8 ± 2.9%
Average inhibition %, biofilms biomass (A. baumannii NCTC 13423; 15 µM): 1 ± 1.8%
Average inhibition %, biofilms viability (A. baumannii NCTC 13423; 15 µM): 0.5 ± 0.8%
Average inhibition %, planktonic cells turbidity (A. baumannii NCTC 13423; 15 µM): 0 ± 0%
Average inhibition %, planktonic cells viability (A. baumannii NCTC 13423; 15 µM): 2.8 ± 3.8%
Average inhibition %, biofilms biomass (A. baumannii NCTC 13423; 25 µM): 0 ± 0%
Average inhibition %, biofilms viability (A. baumannii NCTC 13423; 25 µM): 2.7 ± 4%
Average inhibition %, planktonic cells turbidity (A. baumannii NCTC 13423; 25 µM): 0 ± 0%
Average inhibition %, planktonic cells viability (A. baumannii NCTC 13423; 25 µM): 0 ± 0%
Average inhibition %, biofilms biomass (A. baumannii NCTC 13423; 50 µM): 0.7 ± 1.3%
Average inhibition %, biofilms viability (A. baumannii NCTC 13423; 50 µM): 6.5 ± 7.4%
Average inhibition %, planktonic cells turbidity (A. baumannii NCTC 13423; 50 µM): 0 ± 0%
Average inhibition %, planktonic cells viability (A. baumannii NCTC 13423; 50 µM): 0 ± 0%
MIC A. baumannii NCTC 13423 (A. baumannii NCTC 13423; pre-exposure, Inactive = no activity up to 50 μM, > = some inhibition but no MIC reached): Inactive
